Target: human TRPA1 (Homo sapiens (Human), UniProt O75762)
Test: In vitro inhibition of human TRPA1, whole cell patch configuration
Type: cell-based
Settings: current activation 10 μM AITC, tested concentrations 320 pM to 3.2 μM, read-out: hTRPA1 IC50
Procedure, shortened: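 Compound antagonism measured from voltage ramps (±100 or ±80 mV, 400 ms, every 4 s from −40 mV), analysed at −80 and 80 mV, or at constant −60 mV. HEPES-buffered NaCl bath, pH 7.4, EGTA or 2 mM Ca2+; temperature set by perfusion, within ±2° C; no junction-potential correction.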

Sequence of human TRPA1 (O75762 whole entry): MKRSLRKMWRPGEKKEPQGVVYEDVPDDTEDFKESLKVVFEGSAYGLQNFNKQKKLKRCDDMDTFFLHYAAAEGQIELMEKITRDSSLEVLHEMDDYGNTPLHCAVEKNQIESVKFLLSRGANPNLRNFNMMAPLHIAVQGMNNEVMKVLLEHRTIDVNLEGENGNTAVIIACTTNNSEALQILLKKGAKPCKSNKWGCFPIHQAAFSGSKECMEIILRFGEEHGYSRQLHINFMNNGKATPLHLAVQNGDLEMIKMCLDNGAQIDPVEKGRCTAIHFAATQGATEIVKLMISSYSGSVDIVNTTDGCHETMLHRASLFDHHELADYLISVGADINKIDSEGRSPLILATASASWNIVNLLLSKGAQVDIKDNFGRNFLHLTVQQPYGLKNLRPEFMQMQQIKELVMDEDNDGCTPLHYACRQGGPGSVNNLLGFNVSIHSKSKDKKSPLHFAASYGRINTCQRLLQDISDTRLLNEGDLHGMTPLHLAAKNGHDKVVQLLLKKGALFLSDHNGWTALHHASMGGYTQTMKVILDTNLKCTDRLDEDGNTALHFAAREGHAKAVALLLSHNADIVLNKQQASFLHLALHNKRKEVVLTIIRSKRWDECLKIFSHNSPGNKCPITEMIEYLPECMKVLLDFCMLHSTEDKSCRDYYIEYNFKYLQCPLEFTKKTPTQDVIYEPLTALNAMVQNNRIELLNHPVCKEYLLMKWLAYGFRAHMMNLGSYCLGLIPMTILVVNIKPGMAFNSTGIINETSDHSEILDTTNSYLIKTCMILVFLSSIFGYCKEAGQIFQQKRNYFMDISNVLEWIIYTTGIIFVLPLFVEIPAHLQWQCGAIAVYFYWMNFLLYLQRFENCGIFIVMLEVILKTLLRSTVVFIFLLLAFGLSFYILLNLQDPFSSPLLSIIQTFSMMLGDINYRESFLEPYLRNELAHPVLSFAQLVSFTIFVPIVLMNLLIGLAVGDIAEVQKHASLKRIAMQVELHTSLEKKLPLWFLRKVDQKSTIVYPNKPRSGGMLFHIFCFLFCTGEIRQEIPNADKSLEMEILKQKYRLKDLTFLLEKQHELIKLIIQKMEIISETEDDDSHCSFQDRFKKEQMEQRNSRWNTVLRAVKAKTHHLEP

For `C[C@@H](C(=O)Nc1ccnc(-c2cnc(N3CCC[C@H]3C(F)(F)F)nc2)n1)n1cnc2c1c(=O)n(CC#N)c(=O)n2C` [Compound 54, (S)-2-(1-(cyanomethyl)-3-methyl-2,6-dioxo-2,3-dihydro-1H-purin-7(6H)-yl)-N-(2′-((S)-2-(trifluoromethyl)pyrrolidin-1-yl)-2,5′-bipyrimidin-4-yl)propanamide], the IC50 was 7 nM.

Work on `Cc1nc(Cn2c(=O)c3c(ncn3CC(=O)Nc3cccc(-c4cnc(C(F)(F)F)c(C)c4)n3)n(C)c2=O)no1` [Compound 223, 2-(3-methyl-1-((5-methyl-1,2,4-oxadiazol-3-yl)methyl)-2,6-dioxo-2,3-dihydro-1H-purin-7(6H)-yl)-N-(5′-methyl-6′-(trifluoromethyl)-[2,3′-bipyridin]-6-yl)acetamide] yielded an IC50 of 25 nM.

Compound `C[C@@H](C(=O)Nc1cncc(-c2ccc(C(F)(F)F)nc2)n1)n1cnc2c1c(=O)n(Cc1ccccn1)c(=O)n2C` [Compound 9, (2S)-2-(3-methyl-2,6-dioxo-1-(pyridin-2-ylmethyl)-1,2,3,6-tetrahydropurin-7-yl)-N-(6-(6-(trifluoromethyl)pyridin-3-yl)pyrazin-2-yl)propanamide] has an IC50 of 59 nM.

Compound `CC(=O)Cn1c(=O)c2c(ncn2[C@@H](C)C(=O)Nc2ccnc(-c3ccc(N4CC5CC5C4)nc3)n2)n(C)c1=O` (stereo partly drawn) [Compound 46, (2S)—N-(2-(6-(3-azabicyclo[3.1.0]hexan-3-yl)pyridin-3-yl)pyrimidin-4-yl)-2-(3-methyl-2,6-dioxo-1-(2-oxopropyl)-2,3-dihydro-1H-purin-7(6H)-yl)propanamide] has an IC50 of 22 nM.

With `CC(=O)Cn1c(=O)c2c(ncn2[C@@H](C)C(=O)Nc2cccc(-c3cnc(N4CC5CC5C4)nc3)n2)n(C)c1=O` (stereo partly drawn) [Compound 142, (2S)—N-(6-(2-(3-azabicyclo[3.1.0]hexan-3-yl)pyrimidin-5-yl)pyridin-2-yl)-2-(3-methyl-2,6-dioxo-1-(2-oxopropyl)-2,3-dihydro-1H-purin-7(6H)-yl)propanamide] the IC50 was 7 nM.

`Cc1noc(Cn2c(=O)c3c(ncn3[C@@H](C)C(=O)Nc3cccc(-c4cnc(C(F)(F)F)c(C)c4)n3)n(C)c2=O)n1` [Compound 131, (S)-2-(3-methyl-1-((3-methyl-1,2,4-oxadiazol-5-yl)methyl)-2,6-dioxo-2,3-dihydro-1H-purin-7(6H)-yl)-N-(5′-methyl-6′-(trifluoromethyl)-[2,3′-bipyridin]-6-yl)propanamide] showed an IC50 of 6 nM.

`Cc1cc(Cn2c(=O)c3c(ncn3[C@@H](C)C(=O)Nc3cccc(-c4ccc(C(F)(F)F)cc4)n3)n(C)c2=O)no1` [Compound 23] was tested, and the IC50 was 5 nM.

`C[C@@H](C(=O)Nc1cncc(-c2cnc(C(F)(F)F)nc2)n1)n1cnc2c1c(=O)n(Cc1ccon1)c(=O)n2C` [Compound 120, (S)-2-(1-(isoxazol-3-ylmethyl)-3-methyl-2,6-dioxo-2,3-dihydro-1H-purin-7(6H)-yl)-N-(6-(2-(trifluoromethyl)pyrimidin-5-yl)pyrazin-2-yl)propanamide] was tested, and the IC50 was 26 nM.

Work on `Cc1ncc(-c2cccc(NC(=O)Cn3cnc4c3c(=O)n(CCO)c(=O)n4C)n2)cc1C(F)(F)F` [Compound 237] yielded an IC50 of 236 nM.

For `Cc1cc(Cn2c(=O)c3c(ncn3[C@@H](C)C(=O)Nc3csc(-c4cnc(C(F)(F)F)nc4)n3)n(C)c2=O)no1` [Compound 32, (S)-2-(3-methyl-1-((5-methylisoxazol-3-yl)methyl)-2,6-dioxo-2,3-dihydro-1H-purin-7(6H)-yl)-N-(2-(2-(trifluoromethyl)pyrimidin-5-yl)thiazol-4-yl)propanamide], the IC50 was 3 nM.

Compound `Cc1cc(-c2nc(NC(=O)[C@H](C)n3cnc4c3c(=O)n(CC(F)(F)F)c(=O)n4C)cs2)cnc1C(F)(F)F` [Compound 161, (S)-2-(3-methyl-2,6-dioxo-1-(2,2,2-trifluoroethyl)-2,3-dihydro-1H-purin-7(6H)-yl)-N-(2-(5-methyl-6-(trifluoromethyl)pyridin-3-yl)thiazol-4-yl)propanamide] has an IC50 of 219 nM.

`CC#CCn1c(=O)c2c(ncn2[C@@H](C)C(=O)Nc2csc(-c3cnc(N4CC5CC5C4)nc3)n2)n(C)c1=O` (stereo partly drawn) [Compound 145, (2S)—N-(2-(2-(3-azabicyclo[3.1.0]hexan-3-yl)pyrimidin-5-yl)thiazol-4-yl)-2-(1-(but-2-ynyl)-3-methyl-2,6-dioxo-2,3-dihydro-1H-purin-7(6H)-yl)propanamide] was tested, and the IC50 was 2 nM.

Work on `Cc1cc(Cn2c(=O)c3c(ncn3CC(=O)Nc3cccc(-c4cnc(C)c(C(F)(F)F)c4)n3)n(C)c2=O)no1` [Compound 238, 2-(3-methyl-1-((5-methylisoxazol-3-yl)methyl)-2,6-dioxo-2,3-dihydro-1H-purin-7(6H)-yl)-N-(6′-methyl-5′-(trifluoromethyl)-[2,3′-bipyridin]-6-yl)acetamide] yielded an IC50 of 4 nM.

In the case of `Cc1cc(Cn2c(=O)c3c(ncn3[C@@H](C)C(=O)Nc3cccc(-c4nc(=O)o[nH]4)n3)n(C)c2=O)no1` [Compound 93, (S)-2-(3-methyl-1-((5-methylisoxazol-3-yl)methyl)-2,6-dioxo-2,3-dihydro-1H-purin-7(6H)-yl)-N-(6-(5-oxo-2,5-dihydro-1,2,4-oxadiazol-3-yl)pyridin-2-yl)propanamide], the IC50 is reported as over 3200 nM.

Compound `C[C@@H](C(=O)Nc1cccc(-c2ccc(N3CC4CC4C3)nc2)n1)n1cnc2c1c(=O)n(CC#N)c(=O)n2C` (stereo partly drawn) [Compound 35, (2S)—N-(6′-(3-azabicyclo[3.1.0]hexan-3-yl)-2,3′-bipyridin-6-yl)-2-(1-(cyanomethyl)-3-methyl-2,6-dioxo-2,3-dihydro-1H-purin-7(6H)-yl)] has an IC50 of 6 nM.

In the case of `Cc1cc(-c2nc(NC(=O)Cn3cnc4c3c(=O)n(CC(F)(F)F)c(=O)n4C)cs2)cnc1C(F)(F)F` [Compound 251, 2-(3-methyl-2,6-dioxo-1-(2,2,2-trifluoroethyl)-2,3-dihydro-1H-purin-7(6H)-yl)-N-(2-(5-methyl-6-(trifluoromethyl)pyridin-3-yl)thiazol-4-yl)acetamide], the IC50 is reported as 219 nM.

`C[C@@H](C(=O)Nc1cccc(-c2cnc(N3CCC[C@H]3C(F)(F)F)nc2)n1)n1cnc2c1c(=O)n(CC#N)c(=O)n2C` [Compound 45, (S)-2-(1-(cyanomethyl)-3-methyl-2,6-dioxo-2,3-dihydro-1H-purin-7(6H)-yl)-N-(6-(2-((S)-2-(trifluoromethyl)pyrrolidin-1-yl)pyrimidin-5-yl)pyridin-2-yl)propanamide] was tested, and the IC50 was 4 nM.

Work on `Cc1cc(Cn2c(=O)c3c(ncn3CC(=O)Nc3csc(-c4cnc(C(F)(F)F)nc4)n3)n(C)c2=O)no1` [Compound 259, 2-(3-methyl-1-((5-methylisoxazol-3-yl)methyl)-2,6-dioxo-2,3-dihydro-1H-purin-7(6H)-yl)-N-(2-(2-(trifluoromethyl)pyrimidin-5-yl)thiazol-4-yl)acetamide] yielded an IC50 of 17 nM.

Compound `C[C@@H](C(=O)Nc1ccnc(-c2cnc(N3CC4C(C3)C4(F)F)nc2)n1)n1cnc2c1c(=O)n(CC#N)c(=O)n2C` (stereo partly drawn) [Compound 67, (2S)-2-(1-(cyanomethyl)-3-methyl-2,6-dioxo-2,3-dihydro-1H-purin-7(6H)-yl)-N-(2′-(6,6-difluoro-3-azabicyclo[3.1.0]hexan-3-yl)-[2,5′-bipyrimidin]-4-yl)propanamide] has an IC50 of 7 nM.

`Cc1cc(Cn2c(=O)c3c(ncn3CC(=O)Nc3cccc(-c4cnc(C(F)(F)F)c(C)c4)n3)n(C)c2=O)on1` [Compound 225, 2-(3-methyl-1-((3-methylisoxazol-5-yl)methyl)-2,6-dioxo-2,3-dihydro-1H-purin-7(6H)-yl)-N-(5′-methyl-6′-(trifluoromethyl)-[2,3′-bipyridin]-6-yl)acetamide] gave an IC50 of 49 nM.

`COCC(=O)Cn1c(=O)c2c(ncn2[C@@H](C)C(=O)Nc2csc(-c3cnc(N4CC5CC5C4)cn3)n2)n(C)c1=O` (stereo partly drawn) [Compound 264, (2S)—N-(2-(5-(3-azabicyclo[3.1.0]hexan-3-yl)pyrazin-2-yl)thiazol-4-yl)-2-(1-(3-methoxy-2-oxopropyl)-3-methyl-2,6-dioxo-2,3-dihydro-1H-purin-7(6H)-yl)propanamide] was tested, and the IC50 was 31 nM.

Work on `C[C@@H](C(=O)Nc1cncc(-c2cnc(N3CC4CC4C3)nc2)n1)n1cnc2c1c(=O)n(CC#N)c(=O)n2C` (stereo partly drawn) [Compound 12] yielded an IC50 of 7 nM.

With `Cn1c(=O)n(Cc2ccccn2)c(=O)c2c1ncn2CC(=O)Nc1csc(-c2ccc(F)c(F)c2)n1` [Compound 178, N-(2-(3,4-difluorophenyl)thiazol-4-yl)-2-(3-methyl-2,6-dioxo-1-(pyridin-2-ylmethyl)-2,3-dihydro-1H-purin-7(6H)-yl)acetamide] the IC50 was 14 nM.

Work on `CCC(=O)Cn1c(=O)c2c(ncn2[C@@H](C)C(=O)Nc2ccnc(-c3cnc(N4CC5C(C4)C5(F)F)nc3)n2)n(C)c1=O` (stereo partly drawn) [Compound 62, (2S)—N-(2′-(6,6-difluoro-3-azabicyclo[3.1.0]hexan-3-yl)-[2,5′-bipyrimidin]-4-yl)-2-(3-methyl-2,6-dioxo-1-(2-oxobutyl)-2,3-dihydro-1H-purin-7(6H)-yl)propanamide] yielded an IC50 of 5 nM.

Compound `C[C@@H](C(=O)Nc1cncc(-c2cnc(N3CCC[C@H]3C(F)(F)F)nc2)n1)n1cnc2c1c(=O)n(CC#N)c(=O)n2C` [Compound 48, (S)-2-(1-(cyanomethyl)-3-methyl-2,6-dioxo-2,3-dihydro-1H-purin-7(6H)-yl)-N-(6-(2-((S)-2-(trifluoromethyl)pyrrolidin-1-yl)pyrimidin-5-yl)pyrazin-2-yl)propanamide] has an IC50 of 7 nM.

For `Cc1ncc(-c2cccc(NC(=O)Cn3cnc4c3c(=O)n(Cc3ccon3)c(=O)n4C)n2)cc1C(F)(F)F` [Compound 239, 2-(1-(isoxazol-3-ylmethyl)-3-methyl-2,6-dioxo-2,3-dihydro-1H-purin-7(6H)-yl)-N-(6′-methyl-5′-(trifluoromethyl)-[2,3′-bipyridin]-6-yl)acetamide], the IC50 was 3 nM.

`CCC(=O)Cn1c(=O)c2c(ncn2CC(=O)Nc2cncc(-c3cnc(C)c(C(F)(F)F)c3)n2)n(C)c1=O` [Compound 243, 2-(3-methyl-2,6-dioxo-1-(2-oxobutyl)-2,3-dihydro-1H-purin-7(6H)-yl)-N-(6-(6-methyl-5-(trifluoromethyl)pyridin-3-yl)pyrazin-2-yl)acetamide] gave an IC50 of 6 nM.

Source: patent US10221177B2 (HYDRA BIOSCIENCES, INC., priority 2014, dated 2019)
